Data taken from article PMC4987125 (Molecular microbiology, 2015).
Where no end group is shown, it is not given here.

What was measured:
[1] = system: Rgg2/3 quorum-sensing pathway (Pshp3-lux); assay: Luminescence transcriptional reporter assay, Pshp3-lux; assay type: cell-based, Streptococcus pyogenes; conditions: WT NZ131 Pshp3-lux, CDM with 1% mannose and 0.05% glucose; 500 nM RI-10, 500 nM L10A or 10 mM MgSO4
[2] = system: PepO in intact cells, lysed cells or conditioned supernatants; assay: Activity-based screening for PepO localization; assay type: in vitro ADME, Streptococcus pyogenes; conditions: 50 nM sSHP2-C8, intact cells, lysed cells or conditioned supernatants of ΔoppD shp2GGG shp3GGG pepO+ and pepO- cultures, 30 °C, 4 hours; read-out ΔpepO shp2GGGshp3GGG Pshp3-lux reporter

Molecule	effect on Pshp3-lux induction in mannose-induced wild-type reporter [1]	PepO-dependent degradation of SHP in cellular fractions [2]
O=S(=O)([O-])[O-].[Mg+2] [Mg^2+, MgSO4]	unlike cultures treated with the inactive L10A variant or Mg^2+	
DILIIVGG [sSHP2-C8]		found only in the cytoplasmic fraction
